Source: US4360462A (priority 1977, dated 1982)
Values after ≈ are worked out from the molar mass of the structure shown. Like-named read-outs stand apart in the source and are kept apart here.

Experiments:
Talaromyces avellaneus = experiment: Growth inhibition on agar plates; assay type: cell-based; details: Hamigera avellanea, pH 7.0, read-out: minimal inhibitory concentration
Protocol: (§1) On the other hand, with agar plates containing the assay medium [3.5 g disodium hydrogen phosphate, 0.5 g monopotassium dihydrogen phosphate, 5 g yeast extract (Difco), 10 g glucose, 15 g agar, 1000 ml distilled water, pH 7.0], the growth inhibition against Talaromyces avellaneus was assayed. In this assay, the minimal inhibitory concentrations were 3 μg/ml for C-15003 P-3 and P-3', and 1.5 μg/ml for C-15003 P-4. Furthermore, the wild strain of Tetrahymena pyriformis W as an assay organism was cultivated on an assay medium [composed of 20 g Proteose-peptone (Difco), 1 g yeast extract, 2 g glucose, 1000 ml distilled water and 10 ml 1 M-phosphate buffer pH 7.0] at 28° C. for 44 to 48 hours and the growth inhibitory activity of the antibiotic compounds against this particular microorganism was determined by the serial dilution method. Growth inhibition occurred at 1 μg/ml for C-15003 P-3 and P-3', and at 0.5 μg/ml for C-15003 P-4.

Proteus mirabilis = experiment: Antimicrobial activity, paper disc method; assay type: cell-based; details: 0.02 ml of 300 μg/ml solution, trypticase-soy agar
Protocol: (§2) With trypticase-soy agar (BBL) as an assay medium, the inhibitory concentrations against the microorganisms named below were investigated by the paper disc method. Thus, filter-paper discs (Toyo Seisakusho, thin-type, 8 mm dia.) each impregnated with 0.02 ml of a 300 μg/ml solution of C-15003 P-3, P-3' or P-4 were placed on plates respectively inoculated with the microorganisms named below to investigate the minimal inhibitory concentrations.

Bacillus subtilis = experiment: Antimicrobial activity, paper disc method; assay type: cell-based; details: 0.02 ml of 300 μg/ml solution, trypticase-soy agar
Protocol: as §2

Bacillus cereus = experiment: Antimicrobial activity, paper disc method; assay type: cell-based; details: 0.02 ml of 300 μg/ml solution, trypticase-soy agar
Protocol: as §2

Serratia marcescens = experiment: Antimicrobial activity, paper disc method; assay type: cell-based; details: 0.02 ml of 300 μg/ml solution, trypticase-soy agar
Protocol: as §2

Proteus vulgaris = experiment: Antimicrobial activity, paper disc method; assay type: cell-based; details: 0.02 ml of 300 μg/ml solution, trypticase-soy agar
Protocol: as §2

Mycobacterium avium = experiment: Antimicrobial activity, paper disc method; assay type: cell-based; details: 0.02 ml of 300 μg/ml solution, trypticase-soy agar
Protocol: as §2

Escherichia coli = experiment: Antimicrobial activity, paper disc method; assay type: cell-based; details: 0.02 ml of 300 μg/ml solution, trypticase-soy agar
Protocol: as §2

Staphylococcus aureus = experiment: Antimicrobial activity, paper disc method; assay type: cell-based; details: 0.02 ml of 300 μg/ml solution, trypticase-soy agar
Protocol: as §2

Klebsiella pneumoniae = experiment: Antimicrobial activity, paper disc method; assay type: cell-based; details: 0.02 ml of 300 μg/ml solution, trypticase-soy agar
Protocol: as §2

Pseudomonas aeruginosa = experiment: Antimicrobial activity, paper disc method; assay type: cell-based; details: 0.02 ml of 300 μg/ml solution, trypticase-soy agar
Protocol: as §2

Tetrahymena pyriformis W = experiment: Growth inhibitory activity, serial dilution method; assay type: cell-based; details: 28° C., 44 to 48 hours, pH 7.0, read-out: growth inhibition concentration
Protocol: The potency of the antibiotic was assayed with Tetrahymena pyriformis W as an assay organism.
as §1

[1] = Acute toxicity test in mice; details: mouse, in vivo, ip, intraperitoneal injection
P388 leukemia = experiment: Antitumour activity, P388 leukemia in mice; assay type: in vivo, mouse; details: 0.00625 mg/kg/day, intraperitoneally for 9 consecutive days; 1×10^6 cells/animal, intraperitoneally transplanted
[2] = in chloroform, ethyl acetate, acetone, ethanol, methanol, pyridine, tetrahydrofuran & dimethylsulfoxide

Row | Compound | Solubility (in benzene & ether) | Solubility [2] | Solubility (in petr. ether, hexane & water) | MIC (Talaromyces avellaneus) | antimicrobial activity (minimal inhibitory concentration) (Proteus mirabilis) | antimicrobial activity (minimal inhibitory concentration) (Bacillus subtilis) | antimicrobial activity (minimal inhibitory concentration) (Bacillus cereus) | antimicrobial activity (minimal inhibitory concentration) (Serratia marcescens) | antimicrobial activity (minimal inhibitory concentration) (Proteus vulgaris) | antimicrobial activity (minimal inhibitory concentration) (Mycobacterium avium) | antimicrobial activity (minimal inhibitory concentration) (Escherichia coli) | antimicrobial activity (minimal inhibitory concentration) (Staphylococcus aureus) | antimicrobial activity (minimal inhibitory concentration) (Klebsiella pneumoniae) | antimicrobial activity (minimal inhibitory concentration) (Pseudomonas aeruginosa) | MIC (Tetrahymena pyriformis W) | LD50 [1] | life span-extending ratio (P388 leukemia)
1 | COc1cc2cc(c1Cl)N(C)C(=O)CC(OC(=O)C(C)C)C1(C)OC1C(C)C1CC(O)(NC(=O)O1)C(OC)C=CC=C(C)C2 (stereo not shown) [C-15003 P-3] | Sparingly soluble | Soluble | Insoluble | 3 µg/mL (≈ 4.72 µM) | no activity | no activity | no activity | no activity | no activity | no activity | no activity | no activity | no activity | no activity | 1 µg/mL (≈ 1.57 µM) | > 0.313 mg/kg | 200%
2 | COc1cc2cc(c1Cl)N(C)C(=O)CC(OC(=O)CC(C)C)C1(C)OC1C(C)C1CC(O)(NC(=O)O1)C(OC)C=CC=C(C)C2 (stereo not shown) [C-15003 P-4] | Sparingly soluble | Soluble | Insoluble | 1.5 µg/mL (≈ 2.31 µM) | no activity | no activity | no activity | no activity | no activity | no activity | no activity | no activity | no activity | no activity | 0.5 µg/mL (≈ 0.77 µM) | > 0.313 mg/kg | 200%
